Measurements reported in US5563142A, “Diaromatic substituted compounds as anti-HIV-1 agents” (The Upjohn Company, priority 1994, dated 1996).
Counter-ions that a name gives are not always drawn. Like-named read-outs stand apart in the source and are kept apart here.

Legend:
[1] = tested on: HIV in primary human peripheral blood lymphocytes; experiment: Primary PBL assay: inhibition of viral replication (p24 & RNA); format: cell-based; settings: Human immunodeficiency virus 1, Lymphocyte, primary human lymphocytes infected with HIV, days three and four, read-out: PBL INHIBITION OF VIRAL REPLICATION (p24 & RNA) ED50
Experimental: ^3 The utility of the compounds of the invention is further
infection in primary peripheral blood lymphocytes (primary PBL assay). Th
primary PBL assay offers the following advantages:
(a) The assays are performed with primary human lymphocytes. Thereby,
undesired testing of transformed cell lines is avoided in which host cell
and virus may have undergone processes of mutual adaptation. Performance
of cell culture in serum containing media closely mimics the in vivo
situation. (b) The primary PBL assay distinguishes between true antiviral
effect which is due to the drug and cytostatic/cytotoxic reactions. (c)
Viral replication is precisely followed by kinetic measurement of viral
nucleic acids and proteins. (d) Nucleic acids (total HIVRNA intra and
extracellular) and protein (secreted p24) are measured in parallel which
permits one to differentiate between the compound's effect on virus
replication and on the expression of viral proteins. This leads to
additional information regarding the efficacy of the test compound. (e)
Tolerance of the cell culture against low amounts of organic solvents als
permits the investigation of hydrophobic substances. (f) The dose of the
drug causing half maximal suppression of virus replication is determined.
(g) The screening system is standardized and automated to a high degree.
The primary PBL assay uses the following procedure:
Effects of the compounds of the invention on cell proliferation are determined by lymphocyte proliferation assays. Starting with a 100 micromolar solution, the compound is serially diluted 10 fold. One tenth of the concentration of a compound causing half maximal inhibition of cellular proliferation is employed for all subsequent testing.
Peripheral human lymphocytes are isolated by density gradient centrifugation. After stimulation by mitogen the cells are infected with a standardized preparation of HIV. Subsequently, the infected cells are cultured in the presence of the drug for four days. Individual cultures are established to measure viral replication three and four days following infection. Untreated cells and AZT-treated cells are included as controls in parallel with the drugs under investigation.
The amount of viral core protein p24 synthesized and release by the infected cells is determined in the supernatant by the capture-ELISA technique on days three and four. By comparing with a standard preparation, the amount of protein produced by the virus infected cells is quantified.
The total amount of viral RNA synthesized by the infected lymphocytes is determined by a special nucleic acid hybridization on days three and four of culture. By including a standard preparation of HIV-RNA the amount of synthesized RNA is quantified.
In addition, viability of HIV-infected cells is determined in parallel with assays for viral p24 and RNA. In order to evaluate the half maximal antiviral effect of the drug, a concentration dependency of the drug action is measured.
Numerous examples of the compounds of the invention are assayed according to this procedure. The anti-HIV activity, as measured by the inhibition of the release of core p24 protein in HIV infected human lymphocytes, is used to calculate ED50 -antiviral (the concentration required to give a 50% reduction in p24 synthesis).

[2] = target: T1, viral reverse transcriptase (Human immunodeficiency virus type 1 group M subtype B, UniProt P04585); experiment: Viral reverse transcriptase inhibition, cell free assay; format: biochemical, human immunodeficiency virus (HIV-1)
T1 construct: Viral reverse transcriptase is found in extracts from bacterial clones; made in house; host or cells: Escherichia coli (extracts of bacterial clones, by the procedure of Larder et al., EMBO J. 6:3133-3137, 1987)
Text: The utility of the diaromatic substituted piperazines (III), the anti-AIDS piperazines (IV) and the indoles (V) of this invention can be determined by their ability to inhibit viral reverse transcriptase, an enzyme essential for human immunodeficiency virus replication. This enzyme has characteristics which differentiate it from other known cellular polymerases and it is a unique enzyme which is not found in uninfected cells. Viral reverse transcriptase is found in extracts from bacterial clones prepared according to the procedure described in AIDS Virus Reverse Transcriptase defined by high level expression in Escherichia coli, EMBO J. 6:3133-3137 (1987). Inhibition of this enzyme is determined in a cell free assay which measures the level of radioactive precursors incorporated into DNA. Extracts prepared according to the procedure of Science, 1125-1129 (1981) are incubated in a mixture of inhibitor, 20 mM dithiothreitol, 60 mM sodium chloride, 0.05% NP-40, 10 mM magnesium chloride, 50 mM Tris pH 8.3, 10 μM [^35 S]-labeled deoxynuleoside-5'-triphosphate, 10 μg/ml RNA template (poly rC or poly rG) and 5 μg/ml DNA primer (oligo dG or oligo dT) for 30 minutes at 37° C. Incorporation of radio-labeled percursor is determined by spotting aliquots of the reaction mixture on DE81 paper, washing the papers to remove unincorporated percursor, drying and determining counts. The results (IC50 means the concentration, in μM of drug, required to inhibit the reverse transcriptase activity to the extent of 50%) of various assay(s) are combined and reported as % inhibition and IC50 (calculated).
^1 Viral reverse transcriptase is found in extracts from bacterial
clones prepared according to the procedure described by Larder, B.,
Purifoy D., Powell, K. and Darby, G., AIDS virus reverse transcriptase
defined by high level expression in Escherichia coli., EMBO J. 6,
3133-3137 (1987). Inhibition of this enzyme is determined in a cell free
assay which measures the level of radioactive precursors incorporated int
DNA. Extracts prepared according to the procedure of Kleid, D. G., et
al., Science, 1125-1129 (1981) are incubated in a mixture of inhibitor, 2
mM dithiothreitol, 60 mM sodium chloride, 0.05% NP40, 10 mM magnesium
chloride, 50 mM Tris pH 8.3, 10 μM [^35 Slabeled
deoxynucleoside5triphosphate, 10 μg/ml RNA template (poly rC or poly
rG) and 5 μg/ml DNA primer (oligo dG or oligo dT) for 15 minutes at
37°. Incorporation of radio labeled precursor is determined by
harvesting the trichloroacetic acid precipitated reaction mixtures on
glass fiber filters, drying, and determining counts. The results of
various assays are combined and reported as % inhibition at a 100 μM

[3] = read-out: RT % INHIBITION (100 μM), 100 μM, poly rC or poly rG template

Compound	EC50 [1]	inhibition at 100 µM [2, 3]	inhibition at 100 µM ([2]; read-out: RT % INHIBITION (100 μM))
Cc1c(C(=O)N2CCN(c3ncccc3NC(C)C)CC2)[nH]c2ccccc12 [Example 73, 1-[3-methylindolyl-2-carbonyl]-4-[3-(1-methylethylamino)-2-pyridinyl]piperazine]	< 1 nM	94 to 95%	–
CC(C)Nc1cc(F)ccc1N1CCN(C(=O)c2cc3ccccc3[nH]2)CC1 [Example 74, 1-[Indolyl-2-carbonyl]-4-[2-(1-methylethylamino)-4-fluorophenyl]piperazine]	10 to 100 nM	82 to 84%	–
CC(C)Nc1ccc(F)cc1N1CCN(C(=O)c2cc3ccccc3[nH]2)CC1 [Example 75, 1-[Indolyl-2-carbonyl]-4-[2-(1-methylethylamino)-5-fluorophenyl]piperazine]	10 to 100 nM	77%	–
O=C(c1cc2ccccc2[nH]1)N1CCN(c2ncccc2N2CCCC2)CC1 [Example 76, 1-[Indolyl-2-carbonyl]-4-[3-(1-pyrrolidinyl)-2-pyridinyl]piperazine]	100 to 1000 nM	65 to 76%	–
CC(C)Nc1cccnc1N1CCCN(C(=O)c2cc3cc(F)ccc3[nH]2)CC1 [Example 84]	< 1 nM	97%	–
COc1ccc2cc(C(=O)N3CCN(c4ncccc4NC(C)C)CC3)[nH]c2c1 [Example 87, 1-[6-Methoxyindolyl-2-carbonyl]-4-[3-(1-methylethylamino)-2-pyridinyl]-piperazine]	10 nM	96 to 98%	–
COc1cccc2[nH]c(C(=O)N3CCN(c4ncccc4NC(C)C)CC3)cc12 [Example 88, 1-[4-Methoxyindolyl-2-carbonyl]-4-[3-(1-methylethylamino)-2-pyridinyl]piperazine]	100 nM	56 to 88%	–
Cc1ccc2[nH]c(C(=O)N3CCN(c4ncccc4NC(C)C)CC3)cc2c1 [Example 89, 1-[5-Methylindolyl-2-carbonyl]-4-[3-(1-methylethylamino)-2-pyridinyl]piperazine]	100 nM	61 to 74%	–
CC(C)Nc1cccnc1N1CCN(C(=O)c2cc3cc4c(cc3[nH]2)OCO4)CC1 [Example 90, 1-[5,6-Methylenedioxyindolyl-2-carbonyl]-4-[3-(1-methylethylamino)-2-pyridinyl]piperazine]	< 1 nM	96%	–
COc1cc2[nH]c(C(=O)N3CCN(c4ncccc4NC(C)C)CC3)cc2cc1F [Example 91, 1-[5-Fluoro-6-methoxyindolyl-2-carbonyl]-4-[3-(1-methylethylamino)-2-pyridinyl]piperazine]	100 nM	85 to 91%	–
COc1ccc2cc(C(=O)N3CCN(c4ncccc4NC(C)C)CC3)[nH]c2c1Br [Example 92, 1-[7-Bromo-6-methoxyindolyl-2-carbonyl]-4-[3-(1-methylethyl-amino)-2-pyridinyl]piperazine]	100 to 1000 nM	94%	–
COc1cc2[nH]c(C(=O)N3CCN(c4ncccc4NC(C)C)CC3)cc2cc1Br [Example 94, 1-[5-Bromo-6-methoxyindolyl-2-carbonyl]-4-[3-(1-methylethylamino)-2-pyridinyl]piperazine]	10 to 100 nM	85%	–
CC(C)Nc1cccnc1N1CCN(C(=O)c2cc3ccc(N(C)C)cc3[nH]2)CC1 [Example 95, 1-[6-(N,N-Dimethylamino)indolyl-2-carbonyl]-4-[3-(1-methylethylamino)-2-pyridinyl]piperazine]	< 1 nM	81 to 93%	–
Cc1cccc2[nH]c(C(=O)N3CCN(c4ncccc4NC(C)C)CC3)cc12 [Example 97, 1-[4-Methylindolyl-2-carbonyl]-4-[3-(1-methylethylamino)-2pyridinyl]-piperazine]	≤ 10 nM	52 to 80%	–
CCC(C)Nc1cccnc1N1CCN(C(=O)c2cc3ccccc3[nH]2)CC1 (stereo not shown) [Example 99]	1 to 10 nM	93 to 95%	–
CC(C)Nc1cccnc1N1CCN(C(=O)c2cc3cc(N)ccc3[nH]2)CC1 [Example 101, 1-[5-Aminoindolyl-2-carbonyl]-4-[3-(1-methylethylamino)-2-pyridinyl]-piperazine]	10 nM	93 to 96%	–
CC(C)(C)CNc1cccnc1N1CCN(C(=O)c2cc3cc(F)ccc3[nH]2)CC1 [Example 102, 1-[5-Fluoroindolyl-2-carbonyl]-4-[3-(2',2'-dimethylpropylamino)-2-pyridinyl]piperazine]	10000 nM	48%	–
CC(C)Nc1cccnc1N1CCN(C(=O)c2cc3cc([N+](=O)[O-])ccc3[nH]2)CC1 [Example 103, 1-[5-Nitroindolyl-2-carbonyl]-4-[3-(1-methylethylamino)-2-pyridinyl]piperazine]	< 10 nM	72%	–
CC(=O)Nc1ccc2[nH]c(C(=O)N3CCN(c4ncccc4NC(C)C)CC3)cc2c1 [Example 104, 1-[5-Acetamidoindolyl-2-carbonyl]-4-[3-(1-methylethylamino)-2-pyridinyl]piperazine]	10 nM	92 to 96%	–
CC(C)Nc1cccnc1N1CCN(C(=O)c2cc3cc(NS(C)(=O)=O)ccc3[nH]2)CC1 [Example 105, 1-[5-Methanesulfonamidoindolyl-2-carbonyl]-4-[3-(1-methylethylamino)-2-pyridinyl]piperazine]	≤ 1 nM	–	82 to 96%
COCC(C)Nc1cccnc1N1CCN(C(=O)c2cc3cc(F)ccc3[nH]2)CC1 (stereo not shown) [Example 106, 1-[5-Fluoroindolyl-2-carbonyl]-4-[3-(2-methoxy-1-methylethylamino)-2-pyridinyl]piperazine]	≤ 1 nM	76 to 81%	–
C=CCNc1cccnc1N1CCN(Cc2cc(C)c(OC)c(C)c2)CC1 [Example 116, 1-[4-Methoxy-3,4-dimethylbenzyl]-4-(3-(2-propenylamino)-2-pyridinyl]piperazine, hydrochloride]	< 10000 nM	45 to 52%	–
CC(C)Nc1cccnc1N(C)CCCCN(C)C(=O)c1cc2ccccc2[nH]1 [Example 124, N,N'-Dimethyl-N-(indolyl-2-carbonyl)-N'-[3-(1-methylethyl-amino)-2-pyridyl]-1,4-butanediamine]	> 100 nM	95%	–
